Assay results published in PubChem BioAssay AID220 (DTP/NCI, 2004).
Where “and” joins values, the source holds several entries; their conditions need not be identical. Equal entries are not always repeated. Results filed as inconclusive are left out.

Tested on: CD8F1 mice, subcutaneous mammary adenocarcinoma, T/C%
Experiment: NCI In Vivo Anticancer Drug Screen. Data for tumor model Mammary Adenocarcinoma CD8F1 (subcutaneous) in CD8F1
Conditions: higher = larger tumour
Summary of the method: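 Ratio of treated to vehicle-control outcome, based on either survival or tumor size, in mice bearing transplantable tumors given the test compound.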

[1] = endpoint: median tumor weight (est.), dose: 3.12 mg/kg/injection, schedule: Q07DX005 (ip), vehicle: saline with Tween-80
[2] = endpoint: median tumor weight (est.), dose: 6.25 mg/kg/injection, schedule: Q07DX005 (ip), vehicle: saline with Tween-80
[3] = endpoint: median tumor weight (est.), dose: 12.5 mg/kg/injection, schedule: Q07DX005 (ip), vehicle: saline with Tween-80
[4] = endpoint: median tumor weight (est.), dose: 25.0 mg/kg/injection, schedule: Q07DX005 (ip), vehicle: saline with Tween-80
[5] = endpoint: median tumor weight (est.), dose: 50.0 mg/kg/injection, schedule: Q07DX005 (ip), vehicle: saline with Tween-80
[6] = endpoint: median tumor weight change, dose: 62.0 mg/kg/injection, schedule: Q01DX001 (ip), vehicle: saline
[7] = endpoint: median tumor weight change, dose: 125.0 mg/kg/injection, schedule: Q01DX001 (ip), vehicle: saline

CCOC(=O)NC1=C(N2CC2)C(=O)C(NC(=O)OCC)=C(N2CC2)C1=O
T/C (endpoint: median tumor weight (est.), dose: 0.78 mg/kg/injection, schedule: Q07DX005 (ip), vehicle: saline): 36 % of control
T/C (endpoint: median tumor weight (est.), dose: 1.56 mg/kg/injection, schedule: Q07DX005 (ip), vehicle: saline with Tween-80): 53 % of control
T/C (endpoint: median tumor weight (est.), dose: 1.56 mg/kg/injection, schedule: Q07DX005 (ip), vehicle: saline): 36 % of control
T/C [1]: 59 % of control
T/C (endpoint: median tumor weight (est.), dose: 3.12 mg/kg/injection, schedule: Q07DX005 (ip), vehicle: saline): 56 % of control
T/C [2]: 25 % of control
T/C (endpoint: median tumor weight (est.), dose: 6.25 mg/kg/injection, schedule: Q07DX005 (ip), vehicle: saline): 25 % of control
T/C [3]: 11 % of control
T/C (endpoint: median tumor weight (est.), dose: 12.5 mg/kg/injection, schedule: Q07DX005 (ip), vehicle: saline): 23 % of control
T/C (endpoint: median tumor weight change, dose: 2.5 mg/kg/injection, schedule: Q01DX001 (ip), vehicle: saline): 33 % of control
T/C (endpoint: median tumor weight change, dose: 2.5 mg/kg/injection, schedule: Q01DX001 (ip), vehicle: suspension in saline): 81 % of control
T/C (endpoint: median tumor weight change, dose: 5.0 mg/kg/injection, schedule: Q01DX001 (ip), vehicle: saline): 43 % of control
T/C (endpoint: median tumor weight change, dose: 5.0 mg/kg/injection, schedule: Q01DX001 (ip), vehicle: suspension in saline): 80 % of control
T/C (endpoint: median tumor weight change, dose: 10.0 mg/kg/injection, schedule: Q01DX001 (ip), vehicle: saline with Tween-80): 16 % of control and 31 % of control
T/C (endpoint: median tumor weight change, dose: 10.0 mg/kg/injection, schedule: Q01DX001 (ip), vehicle: saline): 32 % of control
T/C (endpoint: median tumor weight change, dose: 10.0 mg/kg/injection, schedule: Q01DX001 (ip), vehicle: suspension in saline): 52 % of control
T/C (endpoint: median tumor weight change, dose: 20.0 mg/kg/injection, schedule: Q01DX001 (ip), vehicle: saline with Tween-80): -14 % of control
T/C (endpoint: median tumor weight change, dose: 20.0 mg/kg/injection, schedule: Q01DX001 (ip), vehicle: saline): 11 % of control
T/C (endpoint: median tumor weight change, dose: 20.0 mg/kg/injection, schedule: Q01DX001 (ip), vehicle: suspension in saline): 19 % of control

Cc1cc(NCCCCCCNc2cc(C)nc3cc(N(C)C)ccc23)c2ccc(N(C)C)cc2n1
T/C (endpoint: median tumor weight change, dose: 31.0 mg/kg/injection, schedule: Q01DX001 (ip), vehicle: distilled water + Tween-80 + alcohol): 42 % of control
T/C (endpoint: median tumor weight change, dose: 62.0 mg/kg/injection, schedule: Q01DX001 (ip), vehicle: distilled water + Tween-80 + alcohol): 103 % of control
T/C (endpoint: median tumor weight change, dose: 125.0 mg/kg/injection, schedule: Q01DX001 (ip), vehicle: distilled water + Tween-80 + alcohol): 36 % of control

CSc1ccc2c(c1)C(N1CCN(C)CC1)Cc1ccccc1S2 (centres undefined)
T/C [1]: 104 % of control
T/C [2]: 95 % of control
T/C [3]: 63 % of control
T/C [4]: 53 % of control
T/C [5]: 104 % of control

O=c1[nH]c(=O)n(C2CC(O)C(CO)O2)cc1I (centres undefined)
T/C (endpoint: median tumor weight (est.), dose: 182.87 mg/kg/injection, schedule: Q07DX005 (ip), vehicle: saline with Tween-80): 99 % of control
T/C (endpoint: median tumor weight (est.), dose: 365.75 mg/kg/injection, schedule: Q07DX005 (ip), vehicle: saline with Tween-80): 76 % of control
T/C (endpoint: median tumor weight (est.), dose: 731.5 mg/kg/injection, schedule: Q07DX005 (ip), vehicle: saline with Tween-80): 91 % of control
T/C (endpoint: median tumor weight (est.), dose: 800.0 mg/kg/injection, schedule: Q07DX005 (ip), vehicle: saline with Tween-80): 45 % of control and 50 % of control
T/C (endpoint: median tumor weight (est.), dose: 1463.0 mg/kg/injection, schedule: Q07DX005 (ip), vehicle: saline with Tween-80): 50 % of control
T/C (endpoint: median tumor weight (est.), dose: 1600.0 mg/kg/injection, schedule: Q07DX005 (ip), vehicle: saline with Tween-80): 46 % of control and 53 % of control
T/C (endpoint: median tumor weight (est.), dose: 3200.0 mg/kg/injection, schedule: Q07DX005 (ip), vehicle: saline with Tween-80): 7 % of control and 10 % of control

COc1ccc(C(=O)C(CN(C)C)CN(C)C)cc1
T/C (endpoint: median tumor weight change, dose: 7.81 mg/kg/injection, schedule: Q01DX001 (ip), vehicle: saline): 103 % of control
T/C (endpoint: median tumor weight change, dose: 15.62 mg/kg/injection, schedule: Q01DX001 (ip), vehicle: saline): 88 % of control
T/C (endpoint: median tumor weight change, dose: 31.25 mg/kg/injection, schedule: Q01DX001 (ip), vehicle: saline): 84 % of control

COc1cc(C(=O)c2cocc2C(=O)c2ccc3c(c2)OCO3)cc(OC)c1OC
T/C (endpoint: median tumor weight change, dose: 125.0 mg/kg/injection, schedule: Q01DX001 (ip), vehicle: Klucel (hydroxypropylcellulose) (HPC)): 92 % of control
T/C (endpoint: median tumor weight change, dose: 250.0 mg/kg/injection, schedule: Q01DX001 (ip), vehicle: Klucel (hydroxypropylcellulose) (HPC)): 73 % of control
T/C (endpoint: median tumor weight change, dose: 500.0 mg/kg/injection, schedule: Q01DX001 (ip), vehicle: Klucel (hydroxypropylcellulose) (HPC)): 62 % of control
T/C (endpoint: median tumor weight change, dose: 1000.0 mg/kg/injection, schedule: Q01DX001 (ip), vehicle: Klucel (hydroxypropylcellulose) (HPC)): 40 % of control

COc1cc2cc[n+](C)c(Cc3ccccc3)c2cc1OC
T/C [2]: 123 % of control
T/C [3]: 83 % of control
T/C [4]: 94 % of control
T/C [5]: 75 % of control

COC(=O)[C@@H]1c2cc3c(c(O)c2[C@@H](OC)C[C@@]1(C)O)C(=O)c1c(O)cc2c(c1C3=O)OC1O[C@@]2(C)[C@H](O)[C@@H](N(C)C)[C@@H]1O
T/C (endpoint: median tumor weight (est.), dose: 12.5 mg/kg/injection, schedule: Q07DX005 (ip), vehicle: suspension in saline): 73 % of control
T/C (endpoint: median tumor weight (est.), dose: 50.0 mg/kg/injection, schedule: Q07DX005 (ip), vehicle: suspension in saline): 61 % of control and 66 % of control
T/C (endpoint: median tumor weight (est.), dose: 100.0 mg/kg/injection, schedule: Q07DX005 (ip), vehicle: suspension in saline): 151 % of control

CC(Cc1ccc(O)c(O)c1)C(C)Cc1ccc(O)c(O)c1 (centres undefined)
T/C (endpoint: median tumor weight change, dose: 500.0 mg/kg/injection, schedule: Q01DX001 (ip), vehicle: saline): 123 % of control
T/C (endpoint: median tumor weight change, dose: 1000.0 mg/kg/injection, schedule: Q01DX001 (ip), vehicle: saline): 57 % of control

COc1cc(Cc2nccc3cc(OC)c(OC)cc23)c(C(C)=O)cc1OC
T/C [6]: 93 % of control
T/C (endpoint: median tumor weight change, dose: 62.5 mg/kg/injection, schedule: Q01DX001 (ip), vehicle: saline): 41 % of control
T/C (endpoint: median tumor weight change, dose: 62.5 mg/kg/injection, schedule: Q01DX001 (ip), vehicle: suspension in saline): 54 % of control
T/C [7]: 33 % of control and 35 % of control
T/C (endpoint: median tumor weight change, dose: 125.0 mg/kg/injection, schedule: Q01DX001 (ip), vehicle: suspension in saline): 57 % of control
T/C (endpoint: median tumor weight change, dose: 250.0 mg/kg/injection, schedule: Q01DX001 (ip), vehicle: saline): -6 % of control

C[C@@](O)(/C=C/[C@H]1CC=CC(=O)O1)[C@@H](C[C@@H](O)\C=C/C=C\C=C\CO)OP(=O)(O)O
T/C (endpoint: median tumor weight change, dose: 15.62 mg/kg/injection, schedule: Q01DX001 (ip), vehicle: other): 99 % of control
T/C (endpoint: median tumor weight change, dose: 31.25 mg/kg/injection, schedule: Q01DX001 (ip), vehicle: other): 83 % of control
T/C (endpoint: median tumor weight change, dose: 62.5 mg/kg/injection, schedule: Q01DX001 (ip), vehicle: other): 42 % of control

O=C(O)O
T/C (endpoint: median tumor weight (est.), dose: 50.0 mg/kg/injection, schedule: Q07DX005 (ip), vehicle: saline): 104 % of control
T/C (endpoint: median tumor weight (est.), dose: 400.0 mg/kg/injection, schedule: Q07DX005 (ip), vehicle: saline): 72 % of control and 55 % of control

NNC(=O)c1ccncc1
T/C [6]: 78 % of control
T/C [7]: 70 % of control

CCN(CC)CC[n+]1ccc2c(C)c3[nH]c4ccc(O)cc4c3c(C)c2c1
T/C (endpoint: median tumor weight change, dose: 7.5 mg/kg/injection, schedule: Q01DX001 (ip), vehicle: suspension in saline): 83 % of control
T/C (endpoint: median tumor weight change, dose: 15.0 mg/kg/injection, schedule: Q01DX001 (ip), vehicle: suspension in saline): 72 % of control and 75 % of control
T/C (endpoint: median tumor weight change, dose: 15.6 mg/kg/injection, schedule: Q01DX001 (ip), vehicle: suspension in saline): 78 % of control
T/C (endpoint: median tumor weight change, dose: 31.0 mg/kg/injection, schedule: Q01DX001 (ip), vehicle: suspension in saline): 57 % of control
T/C (endpoint: median tumor weight change, dose: 60.0 mg/kg/injection, schedule: Q01DX001 (ip), vehicle: suspension in saline): 7 % of control and 26 % of control
T/C (endpoint: median tumor weight change, dose: 62.0 mg/kg/injection, schedule: Q01DX001 (ip), vehicle: suspension in saline): 3 % of control

Oc1cc2c3c(c1)c1cc4c(cc1c[n+]3CC2)OCO4
T/C (endpoint: median tumor weight (est.), dose: 6.25 mg/kg/injection, schedule: Q07DX005 (ip), vehicle: water): 81 % of control
T/C (endpoint: median tumor weight (est.), dose: 12.5 mg/kg/injection, schedule: Q07DX005 (ip), vehicle: water): 83 % of control
T/C (endpoint: median tumor weight (est.), dose: 25.0 mg/kg/injection, schedule: Q07DX005 (ip), vehicle: water): 85 % of control
T/C (endpoint: median tumor weight (est.), dose: 50.0 mg/kg/injection, schedule: Q07DX005 (ip), vehicle: water): 94 % of control
T/C (endpoint: median tumor weight (est.), dose: 100.0 mg/kg/injection, schedule: Q07DX005 (ip), vehicle: water): 78 % of control
